Measured values published in US7413536B1, “Substrates and screening methods for transport proteins” (XenoPort, Inc., priority 1999, dated 2008).

Experiments:
[1] = Oral absorption in rat; type: in vivo
[2] = target: T1, rat intestinal bile acid transporter (Rattus norvegicus, UniProt Q62633); experiment: Substrate activity for the intestinal bile acid transporter; type: cell-based
T1 sequence (Q62633 1-348): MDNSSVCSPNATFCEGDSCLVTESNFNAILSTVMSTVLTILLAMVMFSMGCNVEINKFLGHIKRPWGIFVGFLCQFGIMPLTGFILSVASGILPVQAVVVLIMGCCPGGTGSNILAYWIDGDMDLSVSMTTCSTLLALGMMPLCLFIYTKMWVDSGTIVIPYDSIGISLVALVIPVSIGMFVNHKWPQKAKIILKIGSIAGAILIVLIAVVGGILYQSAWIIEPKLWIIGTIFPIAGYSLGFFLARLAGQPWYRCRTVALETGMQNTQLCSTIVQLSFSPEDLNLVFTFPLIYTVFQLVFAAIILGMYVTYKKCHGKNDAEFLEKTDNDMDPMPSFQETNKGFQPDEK

Row | oral absorption ([1]; rat) | Molecule | substrate for the rat intestinal bile acid transporter [2] | hydrolysis upon oral absorption (uncharacterized amidase activity) releasing parent drug [1]
1 | effectively absorbed orally | cholyl-lys-(ε-NBD)-OH [cholyl-L-Lys-(ε-NBD)-OH] | substrate | –
2 | – | COc1ccc2cc(C(C)C(=O)NCCCCC(NC(=O)CCC(C)C3CCC4C5C(O)CC6CC(O)CCC6(C)C5CC(O)C34C)C(=O)O)ccc2c1 (stereo not shown) [Cholyl-Lysine-(ε-Naproxen)-OH] | retains activity | hydrolyzed
